According to patent US20080261994A1, “CYCLOPROPANE COMPOUNDS AND PHARMACEUTICAL USE THEREOF” (Japan Tobacco Inc., priority 2003, published 2008):

What was measured:
Assay type in all cases: biochemical
[1] = target: T1, Recombinant Human MMP-13 (Homo sapiens, UniProt P45452); test: MMP-13 inhibitory activity (MMP-13 specific fluorescent substrate with quencher); conditions: Experimental Example 3; read-out: IC50 MMP13
T1 construct: purchased R&D systems 511-MM
In short: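 Recombinant human MMP-13 with test compound, reaction started with quenched fluorogenic peptide 7-MCA-Pro-CHA-Gly-NVal-His-Ala-DPA in Tris-HCl buffer, 1 h at 25 °C, stopped with acetic acid. Fluorescence at Ex 325/Em 405 nm; % inhibition versus enzyme-free and inhibitor-free wells, reported as IC50 (μM).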

[2] = target: T2, MMP-1 (Homo sapiens, UniProt P03956); test: MMP-1 inhibitory action (Type I collagen Activity Measurement kit, FITC-labeled collagen type I); conditions: Experimental Example 2; read-out: IC50 MMP1
T2 sequence (P03956 100-469): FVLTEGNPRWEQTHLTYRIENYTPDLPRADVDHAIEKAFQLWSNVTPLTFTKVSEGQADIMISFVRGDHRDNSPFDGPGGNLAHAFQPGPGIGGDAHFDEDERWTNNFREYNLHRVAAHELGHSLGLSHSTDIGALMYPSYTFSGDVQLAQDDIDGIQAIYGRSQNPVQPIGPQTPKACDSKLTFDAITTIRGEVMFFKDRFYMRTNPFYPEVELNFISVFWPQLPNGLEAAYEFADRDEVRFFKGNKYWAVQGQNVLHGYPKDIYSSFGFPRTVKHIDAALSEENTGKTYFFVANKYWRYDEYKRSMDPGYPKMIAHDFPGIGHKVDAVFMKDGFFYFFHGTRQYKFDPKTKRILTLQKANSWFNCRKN

[3] = target: T3, aggrecanase-1 (Homo sapiens, UniProt O75173); test: Aggrecanase-1 inhibitory action (Particle Assay, GAG release from aggrecan-containing polyacrylamide particles); conditions: Experimental Example 1; read-out: IC50 AG1
T3 sequence (O75173 213-837): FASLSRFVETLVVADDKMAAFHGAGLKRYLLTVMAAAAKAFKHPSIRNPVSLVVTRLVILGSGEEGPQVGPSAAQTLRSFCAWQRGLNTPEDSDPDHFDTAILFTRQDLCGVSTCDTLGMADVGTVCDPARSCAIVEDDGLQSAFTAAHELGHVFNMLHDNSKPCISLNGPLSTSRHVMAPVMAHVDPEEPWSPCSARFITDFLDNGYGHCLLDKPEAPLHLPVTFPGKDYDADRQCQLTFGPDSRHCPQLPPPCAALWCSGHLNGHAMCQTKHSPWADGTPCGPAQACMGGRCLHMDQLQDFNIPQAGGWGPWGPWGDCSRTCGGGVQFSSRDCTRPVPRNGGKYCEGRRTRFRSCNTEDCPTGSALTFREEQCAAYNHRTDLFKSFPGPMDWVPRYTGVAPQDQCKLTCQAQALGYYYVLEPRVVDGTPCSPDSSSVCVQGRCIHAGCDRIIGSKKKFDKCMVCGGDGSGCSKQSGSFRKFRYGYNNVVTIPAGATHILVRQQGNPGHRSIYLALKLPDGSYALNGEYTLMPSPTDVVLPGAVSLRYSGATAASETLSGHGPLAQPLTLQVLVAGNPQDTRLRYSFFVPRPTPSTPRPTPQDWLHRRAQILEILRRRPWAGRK
In short: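 Enzyme and compound incubated with aggrecan-containing polyacrylamide particles in Tris-HCl buffer at 37° C for 15 h. Released GAG in supernatant measured with 1,9-dimethylmethylene blue at 595 nm against chondroitin sulfate standard; % inhibition from enzyme-free and inhibitor-free wells, reported as TC50 (μM).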

| IC50 [1] [nM] | IC50 [2] [nM] | IC50 [3] [nM] | Structure (SMILES) |
| --- | --- | --- | --- |
| < 100 | < 1000 | < 100 | CN(C)C(=O)CCc1ccc([C@H]2C[C@@]2(NS(=O)(=O)c2ccc(-c3cc(C(F)(F)F)on3)s2)C(=O)O)cc1 [Example 2-282] |
| < 100 | ≥ 1000 | < 1000 | O=C(O)C1(NS(=O)(=O)c2ccc(-c3cc(C(F)(F)F)on3)s2)CC1c1cccc(CO)c1 (stereo not drawn) [Example 2-283] |
| < 100 | ≥ 1000 | < 100 | CC(C)(C)OC(=O)NCCCC1(c2ccccc2)CC1(NS(=O)(=O)c1ccc(-c2ccc(Cl)cc2)s1)C(=O)O (stereo not drawn) [Example 2-284] |
| ≥ 1000 | ≥ 1000 | < 1000 | NCCCC1(c2ccccc2)CC1(NS(=O)(=O)c1ccc(-c2ccc(Cl)cc2)s1)C(=O)O (stereo not drawn) [Example 2-285] |
| < 100 | ≥ 1000 | < 100 | CC1[C@H](c2ccccc2)[C@]1(NS(=O)(=O)c1ccc2c(c1)Cc1cc(Br)ccc1-2)C(=O)O (stereo partly drawn) [Example 2-286] |
| < 100 | < 1000 | < 100 | Cc1cnn(-c2ccc(S(=O)(=O)N[C@@]3(C(=O)O)C(C)[C@@H]3c3ccccc3)s2)c1 (stereo partly drawn) [Example 2-287] |
| < 100 | < 1000 | < 100 | CC1[C@@H](c2ccccc2)[C@@]1(NS(=O)(=O)c1ccc(-c2cc(C(F)(F)F)on2)s1)C(=O)O (stereo partly drawn) [Example 2-288] |
| < 1000 | ≥ 1000 | < 1000 | NCc1ccc([C@@H]2C[C@]2(NS(=O)(=O)c2ccc(-c3cc(C(F)(F)F)on3)s2)C(=O)O)cc1 [Example 2-289] |
| < 100 | < 1000 | < 100 | CN(C)C(=O)Cc1ccc([C@@H]2C[C@]2(NS(=O)(=O)c2ccc(-c3cc(C(F)(F)F)on3)s2)C(=O)O)cc1 [Example 2-290] |
| < 100 | < 1000 | < 100 | O=C(Cc1ccc([C@@H]2C[C@]2(NS(=O)(=O)c2ccc(-c3cc(C(F)(F)F)on3)s2)C(=O)O)cc1)N1CCOCC1 [Example 2-291] |
| < 100 | < 1000 | < 100 | NC(=O)Cc1ccc([C@@H]2C[C@]2(NS(=O)(=O)c2ccc(-c3cc(C(F)(F)F)on3)s2)C(=O)O)cc1 [Example 2-292] |
| < 100 | < 1000 | < 100 | CNC(=O)Cc1ccc([C@@H]2C[C@]2(NS(=O)(=O)c2ccc(-c3cc(C(F)(F)F)on3)s2)C(=O)O)cc1 [Example 2-293] |
| < 100 | ≥ 1000 | < 100 | CN1CCN(C(=O)Cc2ccc([C@@H]3C[C@]3(NS(=O)(=O)c3ccc(-c4cc(C(F)(F)F)on4)s3)C(=O)O)cc2)CC1 [Example 2-294] |
| < 100 | ≥ 1000 | < 100 | NC(=O)OCCC1(c2ccccc2)CC1(NS(=O)(=O)c1ccc(-c2ccc(Cl)cc2)s1)C(=O)O (stereo not drawn) [Example 2-295] |
| ≥ 1000 | ≥ 10000 | ≥ 1000 | CC1[C@H](c2ccccc2)[C@]1(NS(=O)(=O)c1ccc(-c2cc(C(F)(F)F)on2)s1)C(N)=O (stereo partly drawn) [Example 2-296] |
| ≥ 1000 | ≥ 10000 | ≥ 1000 | CNC(=O)[C@]1(NS(=O)(=O)c2ccc(-c3cc(C(F)(F)F)on3)s2)C(C)[C@@H]1c1ccccc1 (stereo partly drawn) [Example 2-297] |
| < 100 | ≥ 1000 | < 100 | O=C(NCCCC1(c2ccccc2)CC1(NS(=O)(=O)c1ccc(-c2ccc(Cl)cc2)s1)C(=O)O)OC1CCCC1 (stereo not drawn) [Example 2-298] |
| < 100 | < 100 | < 100 | CCC1C(c2ccccc2)C1(NS(=O)(=O)c1ccc(-c2cc(C(F)(F)F)on2)s1)C(=O)O (stereo not drawn) [Example 2-299] |

| IC50 [1] [nM] | IC50 [2] [nM] | IC50 [3] [nM] | Structure (SMILES) |
| --- | --- | --- | --- |
| < 100 | ≥ 1000 | < 1000 | NCCc1ccc([C@H]2C[C@@]2(NS(=O)(=O)c2ccc(-c3cc(C(F)(F)F)on3)s2)C(N)=O)cc1 [Example 2-300] |
| < 100 | ≥ 1000 | < 100 | O=C(O)[C@@]1(NS(=O)(=O)c2ccc(-c3cc(C(F)(F)F)on3)s2)C[C@H]1c1ccc(CCO)cc1 [Example 2-301] |
| < 100 | < 1000 | < 100 | O=C(O)[C@]1(NS(=O)(=O)c2ccc(-c3cc(C(F)(F)F)on3)s2)C[C@@H]1c1ccc(CCCO)cc1 [Example 2-302] |
| < 100 | ≥ 1000 | < 100 | CN(C)C(=O)OCCC1(c2ccccc2)CC1(NS(=O)(=O)c1ccc(-c2ccc(Cl)cc2)s1)C(=O)O (stereo not drawn) [Example 2-303] |
| < 1000 | ≥ 1000 | < 1000 | CC(C)N1CCN(Cc2cccc([C@H]3C[C@@]3(NS(=O)(=O)c3ccc(-c4cc(C(F)(F)F)on4)s3)C(=O)O)c2)CC1 [Example 2-304] |
| < 100 | ≥ 1000 | < 100 | O=C(O)C1(NS(=O)(=O)c2ccc(-c3cc(C(F)(F)F)on3)s2)C2CCCc3ccccc3C21 (stereo not drawn) [Example 2-305] |
| < 1000 | ≥ 1000 | < 1000 | O=C(OCC1(c2ccccc2)CC1(NS(=O)(=O)c1ccc(-c2cc(C(F)(F)F)on2)s1)C(=O)O)N1CCOCC1 (stereo not drawn) [Example 2-306] |
| ≥ 1000 | ≥ 10000 | ≥ 1000 | O=C(c1ccc(Cl)cc1)c1ccc(S(=O)(=O)N[C@@]2(C(=O)O)C[C@@H]2c2ccccc2)s1 [Example 2-307] |
| < 1000 | ≥ 1000 | < 1000 | CC(C)OCCNC(=O)OCC1(c2ccccc2)CC1(NS(=O)(=O)c1ccc(-c2cc(C(F)(F)F)on2)s1)C(=O)O (stereo not drawn) [Example 2-308] |
| < 1000 | ≥ 1000 | < 1000 | O=C(NC[C@H]1CCCO1)OCC1(c2ccccc2)CC1(NS(=O)(=O)c1ccc(-c2cc(C(F)(F)F)on2)s1)C(=O)O (stereo partly drawn) [Example 2-309] |
| < 100 | < 1000 | < 1000 | O=C(OCC1(c2ccccc2)CC1(NS(=O)(=O)c1ccc(-c2cc(C(F)(F)F)on2)s1)C(=O)O)N1CCCCC1 (stereo not drawn) [Example 2-310] |
| < 1000 | ≥ 1000 | < 1000 | Cc1cc(C2CC2(NS(=O)(=O)c2ccc(-c3cc(C(F)(F)F)on3)s2)C(=O)O)on1 (stereo not drawn) [Example 2-311] |
| ≥ 10000 | ≥ 10000 | ≥ 1000 | O=C1OCC2C(c3ccccc3)C12NS(=O)(=O)c1ccc(-c2cc(C(F)(F)F)on2)s1 (stereo not drawn) [Example 2-312] |
| < 1000 | ≥ 1000 | < 1000 | Cc1cc(C2CC2(NS(=O)(=O)c2ccc(-c3cc(C(F)(F)F)on3)s2)C(=O)O)no1 (stereo not drawn) [Example 2-313] |
| ≥ 10000 | ≥ 10000 | ≥ 1000 | Cc1cc(C2CC2(NS(=O)(=O)c2ccc(-c3cc(C(F)(F)F)on3)s2)C(=O)O)no1 (stereo not drawn) [Example 2-314] |
| < 1000 | ≥ 10000 | < 1000 | O=C(O)C1(NS(=O)(=O)c2ccc(-c3cc(C(F)(F)F)on3)s2)CC1c1cc(CCO)on1 (stereo not drawn) [Example 2-315] |
| ≥ 10000 | ≥ 10000 | ≥ 1000 | O=C(O)C1(NS(=O)(=O)c2ccc(-c3cc(C(F)(F)F)on3)s2)CC1c1cc(CCO)on1 (stereo not drawn) [Example 2-316] |
| < 1000 | ≥ 1000 | < 1000 | O=C(O)C1(NS(=O)(=O)c2ccc(-c3cc(C(F)(F)F)on3)s2)CC1c1cc(CO)on1 (stereo not drawn) [Example 2-317] |
